Reference: US10676468B2, “N-(3-heteroarylaryl)-4-arylarylcarboxamides and analogs as hedgehog pathway inhibitors and use thereof” (IMPACT Therapeutics, Inc., priority 2012, dated 2020)
Structures can show the parent of a compound that is named as a salt.

Legend:
Type in all cases: cell-based, mouse
[1] = test system: Hedgehog Signaling Pathway; assay: SAG-induced differentiation of C3H10T1/2 cells into osteoblastic cells, intracellular alkaline phosphatase activity; conditions: Mus musculus, C3H 10T1/2, 120 h, 1 μM SAG, 5 days, alkaline phosphatase activity (OD405), read-out: IC50 values of compounds that inhibit Hh pathway
In short: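 Mouse C3H10T1/2 cells were induced with SAG and exposed to compound (10 μM to 1 nM) for 5 days at 37 °C. Cells were lysed in 0.2% Triton, and alkaline phosphatase activity was read as OD405 over 30 min at 37 °C in pH 9.8 substrate buffer. IC50 came from a non-linear fit of background-subtracted OD405 against log concentration.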

[2] = test system: Hedgehog Signaling Pathway; assay: SHH-induced differentiation of C3H10T1/2 cells into osteoblastic cells, intracellular alkaline phosphatase activity; conditions: 10 nM SHH-N, 5 days, alkaline phosphatase activity (OD405), read-out: IC50 values of compounds that inhibit Hh pathway
In short: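 Mouse C3H10T1/2 cells were induced with 10 nM SHH-N alongside test compound (10 μM–10 nM) for 5 days at 37 °C. Cells were lysed in 0.2% Triton, and alkaline phosphatase activity was read at OD405 over 30 min at 37 °C with the background reading subtracted. IC50 came from a nonlinear fit against log concentration.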

[3] = test system: Hedgehog Signaling Pathway; assay: Gli-Luc reporter gene cell assay in C3H10T1/2/Gli-Luc cells stimulated with Shh; conditions: 30 nM Shh, luciferase activity (RLU), read-out: IC50 values of compounds that inhibit Hh pathway
Description: The Application of Reporter Gene Cell Assay for the Determination of the Inhibitory Activity of N-(3-(1H-benzo[d]imidazol-2-yl)-4-chlorophenyl)-2-methyl-4-((2S,6R)-2,6-dimethylmorpholino) benzamide and Analogs on Hedgehog Signaling Pathway
The binding of Sonic hedgehog (Shh) to its receptor Patched 1 initiates numerous intracellular signal transmission, and leads to the nuclear translocation of Gli and the elevated transcription of Gli target genes. When C3H10T1/2 cells are stably transfected with the Gli-Luc plasmids containing the luciferase gene under the control of Gli response element and stimulated with Shh, the expression of luciferase is elevated. Luciferase activity is indicative of the hedgehog signaling pathway activity. Therefore, the inhibitory activity of compounds on hedgehog signaling pathway can be measured using the luciferase activity when the transfected cells are stimulated with Shh.
The day before experiment, C3H10T1/2/Gli-Luc cells in log phase of growth were seeded into 96 well plate at a density of 20000 cells per well. The cells were maintained in DMEM (Hyclone) supplemented with 10% FBS (Hyclone) and incubated at 37° C. with 5% CO2 overnight. The compounds to be examined were diluted into 7 different concentrations by series of dilutions (⅓ and 1/10), and the eighth point of concentration is the DMSO control. Those solutions were diluted 100-fold in the fresh growth medium. The cells were taken out of the incubator and the medium of cultured cells were removed. Then, each well was added in an orderly manner with 80 μL of fresh growth medium, 20 μL of medium pre-dilution of positive compound and compounds to be tested, as well as 100 μL of growth medium containing 30 nM of Shh. The cells are returned to the incubator, and incubated for 24 hours.
Measurement of luciferase activity: After taking the 96 well plate out of the incubator, the supernatants were discarded and the cells were washed twice with PBS. Thereafter, each well was dispensed with 20 μL of lysis buffer (Promega E1531), and the plate was shaken for 30 min at room temperature. Following transferring 5 μL of cell lysate into 384 well plate (Greiner 781074), adding 25 μL of luciferase reaction buffer (Promega E1501) into each well and mixing the plate, the relative light unit (RLU) was immediately captured by VarioSkan Flash.
The data were analyzed with Prism 5 software (GraphPad). The relative light unit (RLU) was plotted against the log concentration of testing compound, and the obtained plot was fitted with non-linear curve fitting equation to calculate IC50 values. The curve fitting equation is Y (RLU)=Bottom+(Top−Bottom)/(1+10^((X−Log IC50))). X is the logarithm of concentration. Y is the measure of relative light unit (RLU).
The calculated IC50 value is a measurement of the inhibitory activity of compound to Hh pathway.

[4] = Mus musculus, C3H 10T1/2, 120 h

Row | IC50 [1] | IC50 [2, 4] | IC50 ([3]; Mus musculus, C3H 10T1/2, 24 h) | IC50 ([2]; Dihydrochloride) | IC50 ([3]; 24 hours, Dihydrochloride) | SMILES
1 | 11 nM | 0.19 nM | 0.27 nM |  |  | C[C@@H]1CN(c2ccc(C(=O)Nc3ccc(Cl)c(-c4nc5cscc5[nH]4)c3)c(Cl)c2)C[C@H](C)N1C [Example 199, N-(3-(1H-thieno[3,4-d]imidazol-2-yl)-4-chlorophenyl)-2-chloro-4-((3S,5R)-3,4,5-trimethylpiperazin-1-yl)benzamide]
2 | 106 nM | 5 nM | 3.3 nM |  |  | C[C@@H]1CN(c2ccc(C(=O)Nc3ccc(Cl)c(-c4nc5ccc(Cl)cc5[nH]4)c3)c(Cl)c2)C[C@H](C)N1C [Example 96, N-(3-(6-chloro-1H-benzo[d]imidazol-2-yl)-4-chlorophenyl)-2-chloro-4-((3S,5R)-3,4,5-trimethylpiperazin-1-yl)benzamide]
3 | 52 nM | 1.3 nM | 3.7 nM |  |  | C[C@@H]1CN(c2ccc(C(=O)Nc3ccc(Cl)c(-c4ccccn4)c3)c(Cl)c2)C[C@H](C)N1C [Example 208, N-(3-(pyridin-2-yl)-4-chlorophenyl)-2-chloro-4-((3S,5R)-3,4,5-trimethylpiperazin-1-yl)benzamide]
4 | 67 nM | 1.5 nM | 1.2 nM |  |  | Cc1csc(-c2cnc(-c3cc(NC(=O)c4ccc(N5C[C@@H](C)N(C)[C@@H](C)C5)cc4C)ccc3Cl)[nH]2)c1 [Example 135, N-(3-(5-(4-methylthiophen-2-yl)-1H-imidazol-2-yl)-4-chlorophenyl)-2-methyl-4-((3S,5R)-3,4,5-trimethylpiperazin-1-yl)benzamide]
5 | 13 nM | 0.11 nM | 0.22 nM |  |  | C[C@@H]1CN(c2ccc(C(=O)Nc3ccc(Cl)c(-c4ncc(-c5cccs5)[nH]4)c3)c(C(F)(F)F)c2)C[C@H](C)N1C [Example 155, N-(3-(5-(thiophen-2-yl)-1H-imidazol-2-yl)-4-chlorophenyl)-2-(trifluoro-methyl)-4-((3S,5R)-3,4,5-trimethylpiperazin-1-yl)benzamide]
6 | 1800 nM | > 10000 nM | > 10000 nM |  |  | C[C@@H]1CN(c2ccc(C(=O)Nc3ccc(Cl)c(-c4ncccn4)c3)c(Cl)c2)C[C@H](C)N1C [Example 209, N-(3-(pyrimidin-2-yl)-4-chlorophenyl)-2-chloro-4-((3S,5R)-3,4,5-trimethylpiperazin-1-yl)benzamide]
7 | 201 nM | 49 nM | 9.6 nM |  |  | C[C@@H]1CN(c2ccc(C(=O)Nc3ccc(Cl)c(-c4cnc5ccccc5n4)c3)c(Cl)c2)C[C@H](C)N1C [Example 204, N-(3-(quinoxalin-2-yl)-4-chlorophenyl)-2-chloro-4-((3S,5R)-3,4,5-trimethylpiperazin-1-yl)benzamide]
8 | 157 nM | 54 nM | 5.7 nM |  |  | C[C@@H]1CN(c2ccc(C(=O)Nc3ccc(Cl)c(-c4nc5ccncc5[nH]4)c3)c(Cl)c2)C[C@H](C)N1C [Example 196, N-(3-(3H-imidazo[4,5-c]pyridin-2-yl)-4-chlorophenyl)-2-chloro-4-((3S,5R)-3,4,5-trimethylpiperazin-1-yl)benzamide]
9 | 39 nM | 1.6 nM | 0.58 nM |  |  | C[C@@H]1CN(c2ccc(C(=O)Nc3ccc(Cl)c(-c4ncc(-c5ccc(Cl)s5)[nH]4)c3)c(Cl)c2)C[C@H](C)N1C [Example 138, N-(3-(5-(5-chlorothiophen-2-yl)-1H-imidazol-2-yl)-4-chlorophenyl)-2-chloro-4-((3S,5R)-3,4,5-trimethylpiperazin-1-yl)benzamide]
10 | 4.8 nM | 0.2 nM | 0.21 nM |  |  | C[C@@H]1CN(c2ccc(C(=O)Nc3ccc(Cl)c(-c4ncc(-c5ccsc5)[nH]4)c3)c(Cl)c2)C[C@H](C)N1C [Example 140, N-(3-(5-(thiophen-3-yl)-1H-imidazol-2-yl)-4-chlorophenyl)-2-chloro-4-((3S,5R)-3,4,5-trimethylpiperazin-1-yl)benzamide]
11 | 33 nM | 0.55 nM | 4.2 nM |  |  | Cc1cc(-c2ccc(C(F)(F)F)cc2)ccc1C(=O)Nc1cnc(Cl)c(-c2nc3ccccc3[nH]2)c1 [Example 69, N-(5-(1H-benzo[d]imidazol-2-yl)-6-chloropyridin-3-yl)-3-methyl-4′-(trifluoromethyl)biphenyl-4-carboxamide]
12 | 82 nM | 7.5 nM | 4 nM |  |  | C[C@@H]1CN(c2ccc(C(=O)Nc3cnc(Cl)c(-c4nc5ccc(F)cc5[nH]4)c3)c(Cl)c2)C[C@H](C)N1C [Example 129, N-(5-(6-fluoro-1H-benzo[d]imidazol-2-yl)-6-chloropyridin-3-yl)-2-chloro-4-((3S,5R)-3,4,5-trimethylpiperazin-1-yl)benzamide]
13 | 16 nM | 8.5 nM | 12 nM |  |  | Cc1cc(-c2cncnc2)ccc1C(=O)Nc1ccc(Cl)c(-c2nc3ccccc3[nH]2)c1 [Example 43, N-(3-(1H-benzo[d]imidazol-2-yl)-4-chlorophenyl)-2-methyl-4-(pyrimidin-5-yl)benzamide]
14 | 28 nM | 0.66 nM | 0.57 nM |  |  | C[C@@H]1CN(c2ccc(C(=O)Nc3ccc(Cl)c(-c4nc5ccccc5n4C)c3)c(Cl)c2)C[C@H](C)N1C [Example 110, N-(3-(1-methyl-1H-benzo[d]imidazol-2-yl)-4-chlorophenyl)-2-chloro-4-((3S,5R)-3,4,5-trimethylpiperazin-1-yl)benzamide]
15 | 8.2 nM | 0.42 nM | 0.3 nM |  |  | CCN1[C@H](C)CN(c2ccc(C(=O)Nc3ccc(Cl)c(-c4ncc(-c5cccs5)[nH]4)c3)c(Cl)c2)C[C@@H]1C [Example 158, N-(3-(5-(thiophen-2-yl)-1H-imidazol-2-yl)-4-chlorophenyl)-2-chloro-4-((3S,5R)-4-ethyl-3,5-dimethylpiperazin-1-yl)benzamide]
16 |  |  |  | 7.2 nM | 1.2 nM | C[C@@H]1CN(c2ccc(C(=O)Nc3ccc(Cl)c(-c4nc5ccc(F)cc5[nH]4)c3)c(Cl)c2)C[C@H](C)N1C [Example 131, N-(3-(6-fluoro-1H-benzo[d]imidazol-2-yl)-4-chlorophenyl)-2-chloro-4-((3S,5R)-3,4,5-trimethylpiperazin-1-yl)benzamide Dihydrochloride]
17 |  |  | 0.29 nM |  |  | CCN1[C@H](C)CN(c2ccc(C(=O)Nc3ccc(Cl)c(-c4nc5cscc5[nH]4)c3)c(Cl)c2)C[C@@H]1C [Example 203, N-(3-(1H-thieno[3,4-d]imidazol-2-yl)-4-chlorophenyl)-2-chloro-4-((3S,5R)-4-ethyl-3,5-dimethylpiperazin-1-yl)benzamide]
18 |  |  | 0.38 nM |  |  | Cc1cc(N2C[C@@H](C)N(C)[C@@H](C)C2)ccc1C(=O)Nc1ccc(Cl)c(-c2ncc(-c3cccn3C)[nH]2)c1 [Example 161, N-(3-(5-(1-methyl-1H-pyrrol-2-yl)-1H-imidazol-2-yl)-4-chlorophenyl)-2-methyl-4-((3S,5R)-3,4,5-trimethylpiperazin-1-yl)benzamide]
19 |  |  | 1 nM |  |  | CCc1cnc(-c2cc(NC(=O)c3ccc(N4C[C@@H](C)N(C)[C@@H](C)C4)cc3Cl)ccc2Cl)[nH]1 [Example 188, N-(3-(5-ethyl-1H-imidazol-2-yl)-4-chlorophenyl)-2-chloro-4-((3S,5R)-3,4,5-trimethylpiperazin-1-yl)benzamide Dihydrochloride]
